Assay results as given in the supplement of paper PMC13380429.

Experiments:
Settings in all cases: 72 h
Caco-2 [1] = assay: cell viability relative to DMSO; higher = less toxic
Calu-3 [2] = assay: as above
HepG2 [3] = assay: as above
U2OS [4] = assay: as above
Vero E6 [5] = assay: as above
Caco-2 [6] = assay: relative viability EC50 (midpoint between 100% and the lowest measured viability); higher = less toxic
Calu-3 [7] = assay: as above
HepG2 [8] = assay: as above
U2OS [9] = assay: as above
Vero E6 [10] = assay: as above
Caco-2 [11] = assay: drug sensitivity score (DSS) for viability; higher = more toxic; extreme values may be limits of the assay
Calu-3 [12] = assay: as above
HepG2 [13] = assay: as above
U2OS [14] = assay: as above
Vero E6 [15] = assay: as above

| Compound | cell viability (Caco-2 [1]; 1 nM) [%] | cell viability (Caco-2 [1]; 10 nM) [%] | cell viability (Caco-2 [1]; 100 nM) [%] | cell viability (Caco-2 [1]; 1000 nM) [%] | cell viability (Caco-2 [1]; 10000 nM) [%] | cell viability (Calu-3 [2]; 1 nM) [%] | cell viability (Calu-3 [2]; 10 nM) [%] | cell viability (Calu-3 [2]; 100 nM) [%] | cell viability (Calu-3 [2]; 1000 nM) [%] | cell viability (Calu-3 [2]; 10000 nM) [%] | cell viability (HepG2 [3]; 1 nM) [%] | cell viability (HepG2 [3]; 10 nM) [%] | cell viability (HepG2 [3]; 100 nM) [%] | cell viability (HepG2 [3]; 1000 nM) [%] | cell viability (HepG2 [3]; 10000 nM) [%] | cell viability (U2OS [4]; 1 nM) [%] | cell viability (U2OS [4]; 10 nM) [%] | cell viability (U2OS [4]; 100 nM) [%] | cell viability (U2OS [4]; 1000 nM) [%] | cell viability (U2OS [4]; 10000 nM) [%] | cell viability (Vero E6 [5]; 1 nM) [%] | cell viability (Vero E6 [5]; 10 nM) [%] | cell viability (Vero E6 [5]; 100 nM) [%] | cell viability (Vero E6 [5]; 1000 nM) [%] | cell viability (Vero E6 [5]; 10000 nM) [%] | relative viability EC50 (Caco-2 [6]) [µM] | relative viability EC50 (Calu-3 [7]) [µM] | relative viability EC50 (HepG2 [8]) [µM] | relative viability EC50 (U2OS [9]) [µM] | relative viability EC50 (Vero E6 [10]) [µM] | drug sensitivity score (Caco-2 [11]) | drug sensitivity score (Calu-3 [12]) | drug sensitivity score (HepG2 [13]) | drug sensitivity score (U2OS [14]) | drug sensitivity score (Vero E6 [15]) |
| --- | --- | --- | --- | --- | --- | --- | --- | --- | --- | --- | --- | --- | --- | --- | --- | --- | --- | --- | --- | --- | --- | --- | --- | --- | --- | --- | --- | --- | --- | --- | --- | --- | --- | --- | --- |
| O=C(O)c1ccccc1C(=O)Nc1ccc(S(=O)(=O)Nc2nccs2)cc1 [phthalylsulfathiazole] | 106 | 93.9 | 94.1 | 102 | 93.7 | 105 | 86.8 | 106 | 107 | 107 | 87.5 | 107 | 115 | 111 | 112 | 97.9 | 98 | 102 | 96.8 | 99.7 | 92.2 | 98.9 | 94.9 | 94.5 | 108 | > 10 | > 10 | > 10 | > 10 | > 10 | 0 | 0 | 0 | 0 | 0 |
| O=C1CC[C@@H](C(=O)N2CSC[C@H]2C(=O)O)N1 [pidotimod] | 102 | 91.6 | 106 | 102 | 92.7 | 97.4 | 104 | 97.3 | 96 | 102 | 98.4 | 101 | 101 | 105 | 106 | 93.9 | 93.3 | 101 | 99.9 | 106 | 97.8 | 101 | 94.8 | 101 | 107 | > 10 | > 10 | > 10 | > 10 | > 10 | 0 | 0 | 0 | 0 | 0 |
| CN[C@@H](C)CC1CCCCC1 [propylhexedrine] | 88 | 111 | 86 | 79.4 | 102 | 97.4 | 104 | 104 | 90.2 | 97.9 | 102 | 101 | 99.3 | 97.8 | 94.1 | 104 | 99.6 | 100 | 99.2 | 100 | 99.2 | 110 | 106 | 104 | 95.7 | > 10 | > 10 | > 10 | > 10 | > 10 | 0 | 0 | 0 | 0 | 0 |
| CCC(=O)NCC[C@@H]1CCc2ccc3c(c21)CCO3 [ramelteon] | 102 | 96.8 | 97.1 | 101 | 95.6 | 106 | 90.7 | 100 | 86.3 | 98.4 | 105 | 112 | 105 | 108 | 89 | 99.5 | 98.4 | 101 | 96.1 | 98.7 | 112 | 110 | 106 | 100 | 99.5 | > 10 | > 10 | > 10 | > 10 | > 10 | 0 | 0 | 0 | 0 | 0 |
| CCn1nc(C)c2c1C(c1ccccc1)=NCC(=O)N2 [ripazepam] | 96.9 | 103 | 104 | 101 | 124 | 97.4 | 102 | 95.6 | 109 | 95.8 | 106 | 100 | 98.9 | 92.2 | 113 | 96.4 | 99.1 | 93.2 | 102 | 98.2 | 95.6 | 99.9 | 104 | 100 | 97.1 | > 10 | > 10 | > 10 | > 10 | > 10 | 0 | 0 | 0 | 0 | 0 |
| CN(C)CCc1c[nH]c2ccc(Cn3cncn3)cc12 [rizatriptan] | 91.9 | 102 | 101 | 97.2 | 87.7 | 96.5 | 107 | 99.8 | 97.3 | 99.1 | 99 | 93.5 | 102 | 92.8 | 104 | 99 | 106 | 96.5 | 98.6 | 96.5 | 101 | 94.8 | 98.7 | 99.3 | 98.8 | > 10 | > 10 | > 10 | > 10 | > 10 | 0.2 | 0 | 0 | 0 | 0 |
| CCCCc1ccc(O)cc1O [rucinol] | 102 | 95.3 | 83.5 | 114 | 106 | 101 | 98 | 83.4 | 102 | 83.8 | 110 | 87.5 | 107 | 92.5 | 81.5 | 101 | 99 | 99.8 | 104 | 96.7 | 111 | 84.9 | 106 | 91.8 | 103 | > 10 | > 10 | > 10 | > 10 | > 10 | 0 | 0.1 | 1.3 | 0 | 0 |
| OC[C@H]1O[C@@H](OCCc2ccc(O)cc2)[C@H](O)[C@@H](O)[C@@H]1O [salidroside] | 103 | 92.2 | 92.3 | 106 | 104 | 96 | 106 | 102 | 87.2 | 113 | 91.4 | 97 | 109 | 87 | 104 | 102 | 93.9 | 96 | 103 | 101 | 95.5 | 94.8 | 93.2 | 99.8 | 107 | > 10 | > 10 | > 10 | > 10 | > 10 | 0 | 0 | 0 | 0 | 0 |
| C[C@H](Cc1cc2c(c(C(N)=O)c1)N(CCCO)CC2)NCCOc1ccccc1OCC(F)(F)F [silodosin] | 91.6 | 93.1 | 106 | 92 | 88.7 | 96 | 87.2 | 97 | 101 | 93.6 | 95 | 97.7 | 103 | 102 | 99.9 | 101 | 93.5 | 98.9 | 95.6 | 97.6 | 93.9 | 102 | 97.1 | 101 | 108 | > 10 | > 10 | > 10 | > 10 | > 10 | 0 | 0 | 0 | 0 | 0 |
| CCOc1ccc(Cc2cc([C@@H]3O[C@H](SC)[C@@H](O)[C@H](O)[C@H]3O)ccc2Cl)cc1 [sotagliflozin] | 98.3 | 102 | 100 | 92.5 | 91.1 | 91.4 | 94.1 | 112 | 97.7 | 99.8 | 90.3 | 101 | 98.4 | 101 | 91.8 | 97.7 | 95 | 100 | 97.6 | 95.4 | 94.6 | 97.2 | 95.4 | 95.8 | 102 | > 10 | > 10 | > 10 | > 10 | > 10 | 0 | 0 | 0 | 0 | 0 |
| CC(=O)N(c1onc(C)c1C)S(=O)(=O)c1ccc(N)cc1 [sulfisoxazole-acetyl] | 109 | 106 | 110 | 102 | 90.9 | 96.7 | 102 | 93.6 | 102 | 102 | 96.9 | 105 | 114 | 103 | 97.4 | 101 | 97.5 | 101 | 97.7 | 98.7 | 104 | 107 | 103 | 96.9 | 98.8 | > 10 | > 10 | > 10 | > 10 | > 10 | 0 | 0 | 0 | 0 | 0 |
| CC1=C(CC(=O)O)c2cc(F)ccc2/C1=C\c1ccc([S+](C)[O-])cc1 (stereo not given) [sulindac] | 96 | 100 | 103 | 94.9 | 85.1 | 102 | 113 | 96.5 | 98 | 101 | 117 | 90.2 | 93.3 | 84 | 108 | 101 | 99.2 | 97.4 | 101 | 97.4 | 105 | 102 | 103 | 92.9 | 94.4 | > 10 | > 10 | > 10 | > 10 | > 10 | 0.6 | 0 | 0 | 0 | 0 |
| C=CC[C@@H]1/C=C(\C)C[C@H](C)C[C@H](OC)[C@H]2O[C@@](O)(C(=O)C(=O)N3CCCC[C@H]3C(=O)O[C@H](/C(C)=C/[C@@H]3CC[C@@H](O)[C@H](OC)C3)[C@H](C)[C@@H](O)CC1=O)[C@H](C)C[C@@H]2OC [tacrolimus] | 99.8 | 101 | 88.8 | 103 | 93.8 | 99.1 | 103 | 96.6 | 100 | 107 | 108 | 99.6 | 103 | 98.2 | 104 | 96.9 | 102 | 98.7 | 104 | 98 | 96.3 | 91.6 | 88.5 | 90.3 | 108 | > 10 | > 10 | > 10 | > 10 | > 10 | 0 | 0 | 0 | 0 | 0 |
